In patent US9029405B2, “5-(biphenyl-4-yl)-3-phenyl-1,2,4-oxadiazolyl derivatives as ligands on the sphingosine 1-phosphate(SIP)receptors” (Merck Serono S.A., priority 2010, dated 2015):
Counter-ions that a name gives are not always drawn. Like-named read-outs stand apart in the source and are kept apart here.

Tests used:
S1P1 [1] = target: T1, S1P1 (Homo sapiens, UniProt P21453); assay: S1P1 internalization assay in S1P1-U2OS cells (cell imaging); assay type: cell-based; design: host or cells: U2OS (human bone osteosarcoma epithelial cells); details: U2OS cells expressing S1P1-EGFP, 384-well format
Summary of the method: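 U2OS cells stably expressing human S1P1-EGFP, serum-starved 2 h in medium with 0.1% fatty-acid-free BSA, then compound 1 h at 37° C. After fixation and Hoechst nuclear stain, receptor internalization imaged as EGFP spot count per nucleus.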
Target sequence in this assay (P21453 whole entry): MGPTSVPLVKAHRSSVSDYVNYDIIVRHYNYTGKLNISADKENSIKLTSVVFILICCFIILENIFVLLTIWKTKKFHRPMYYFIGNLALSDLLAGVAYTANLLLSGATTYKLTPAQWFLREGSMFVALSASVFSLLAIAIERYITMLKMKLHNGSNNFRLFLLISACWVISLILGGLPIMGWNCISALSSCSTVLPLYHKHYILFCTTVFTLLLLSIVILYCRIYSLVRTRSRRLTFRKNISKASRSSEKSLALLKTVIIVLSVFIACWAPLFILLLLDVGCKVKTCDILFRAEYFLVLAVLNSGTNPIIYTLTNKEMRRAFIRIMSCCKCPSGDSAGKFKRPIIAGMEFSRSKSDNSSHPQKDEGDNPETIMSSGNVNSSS

S1P3 = S1P3 (Homo sapiens, UniProt Q99500); assay: Receptor binding assay, [33P]sphingosine 1-phosphate competition, membranes of CHO cells expressing S1P3
Summary of the method: (§1)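 SPA competition on CHO membranes with [33P]S1P at 30 pM (S1P1) or 15 pM (S1P3), in 50 mM HEPES pH 7.5, 5 mM MgCl2, 100 mM NaCl, 0.4% fatty acid-free BSA, 60 min at RT. Non-specific binding defined by 1000-fold unlabeled S1P; Ki values reported.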

S1P1 [2] = target: T1, S1P1; assay: Receptor binding assay, [33P]sphingosine 1-phosphate competition, membranes of CHO cells expressing S1P1
Summary of the method: as §1
Target sequence in this assay (P21453 whole entry, species assumed): as the sequence (P21453 whole entry) above

[3] = 96 well plate, read-out: S1P3 Binding Ki [M] (96 well plate)
[4] = 384 well plate, read-out: S1P3 Binding Ki [M] (384 well plate)
[5] = 96 well plate, read-out: S1P1 Binding Ki [M] (96 well plate)
[6] = 384 well plate, read-out: S1P1 Binding Ki [M] (384 well plate)

S1P3, sequence (Q99500 whole entry, species assumed): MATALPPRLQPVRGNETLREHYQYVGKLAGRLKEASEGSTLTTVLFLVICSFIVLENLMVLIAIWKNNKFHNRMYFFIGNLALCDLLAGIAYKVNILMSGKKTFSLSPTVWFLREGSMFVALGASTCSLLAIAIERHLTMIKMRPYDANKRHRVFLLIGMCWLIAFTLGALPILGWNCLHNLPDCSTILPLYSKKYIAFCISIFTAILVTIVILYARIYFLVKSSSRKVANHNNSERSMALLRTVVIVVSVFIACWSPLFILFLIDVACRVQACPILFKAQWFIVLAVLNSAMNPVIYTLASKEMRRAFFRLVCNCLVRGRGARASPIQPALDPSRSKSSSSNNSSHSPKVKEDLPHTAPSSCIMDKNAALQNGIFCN

Row | Compound | EC50 (S1P1 [1]) | Ki (S1P3; [3]) | Ki (S1P3; [4]) | Ki (S1P1 [2]; [5]) | Ki (S1P1 [2]; [6])
1 | Cc1cc(-c2nc(-c3ccc([C@@H](C)N[C@H](C)C(=O)O)cc3)no2)ccc1-c1ccccc1C(F)(F)F [Example 6, N-[(1R)-1-(4-{5-[2-methyl-2′-(trifluoromethyl)biphenyl-4-yl]-1,2,4-oxadiazol-3-yl}phenyl)ethyl]-D-alanine, hydrochloride salt] | 0.00757 µM | > 2e-05 M | > 2e-05 M | 9.92e-10 M | 2.18e-09 M
2 | Cc1ccccc1-c1ccc(-c2nc(-c3ccc(C(CO)NCC(=O)O)cc3)no2)cc1C(F)(F)F (centres unmarked) [Example 52, 2-(2-Hydroxy-1-(4-(5-(2′-methyl-2-(trifluoromethyl)biphenyl-4-yl)-1,2,4-oxadiazol-3-yl)phenyl)ethylamino)acetic acid] | 0.0102 µM |  | 1.08e-06 M |  | 3.76e-09 M
3 | Cc1cc(-c2nc(-c3ccc(C(C)N(C)CC(=O)O)cc3)no2)ccc1-c1ccccc1C(F)(F)F (centres unmarked) [Example 14, N-methyl-N-[1-(4-{5-[2-methyl-2′-(trifluoromethyl)biphenyl-4-yl]-1,2,4-oxadiazol-3-yl}phenyl)ethyl]glycine, hydrochloride salt] | 0.0862 µM |  | > 2e-05 M |  | 4.78e-09 M
4 | Cc1ccccc1-c1ccc(-c2nc(-c3ccc(CN(C)[C@H](CO)C(=O)O)cc3)no2)cc1C(F)(F)F [Example 72] | 0.0319 µM |  | 2.66e-06 M |  | 3.94e-09 M
5 | CC[C@@H](N[C@H](C)c1ccc(-c2noc(-c3ccc(-c4ccccc4C)c(C(F)(F)F)c3)n2)cc1)C(=O)O [Example 11, (2R)-2-{[(1R)-1-(4-{5-[2′-methyl-2-(trifluoromethyl)biphenyl-4-yl]-1,2,4-oxadiazol-3-yl}phenyl)ethyl]amino}butanoic acid, hydrochloride salt] | 0.026 µM |  | 2.32e-06 M |  | 3.96e-09 M
6 | Cc1ccccc1-c1ccc(-c2nc(-c3ccc(CN[C@@H](C)C(=O)O)cc3)no2)cc1C(F)(F)F [Example 67] | 0.0285 µM |  | 4.49e-06 M |  | 3.45e-09 M
7 | CC[C@@H](C(=O)O)N(C)Cc1ccc(-c2noc(-c3ccc(-c4ccccc4C)c(C(F)(F)F)c3)n2)cc1 [Example 69, (2S)-2-(methyl(4-(5-(2′-methyl-2-(trifluoromethyl)biphenyl-4-yl)-1,2,4-oxadiazol-3-yl)benzyl)amino)butanoic acid] | 0.0491 µM |  | 4.07e-06 M |  | 5.2e-09 M
8 | Cc1cc(-c2nc(-c3ccc([C@H](C)N[C@H](C)C(=O)O)cc3)no2)ccc1-c1ccccc1C(F)(F)F (racemic) [Example 25, N-[(1S)-1-(4-{5-[2-methyl-2′-(trifluoromethyl)biphenyl-4-yl]-1,2,4-oxadiazol-3-yl}phenyl)ethyl]-D-alanine and N-[(1R)-1-(4-{5-[2-methyl-2′-(trifluoromethyl)biphenyl-4-yl]-1,2,4-oxadiazol-3-yl}phenyl)ethyl]-L-alanine] | 0.0281 µM |  | > 2e-05 M |  | 2.59e-09 M
9 | Cc1ccccc1-c1ccc(-c2nc(-c3ccc(C(C)N(C)[C@@H](C)C(=O)O)cc3)no2)cc1C(F)(F)F (some centres unmarked) [Example 39, N-methyl-N-[1-(4-{5-[2′-methyl-2-(trifluoromethyl)biphenyl-4-yl]-1,2,4-oxadiazol-3-yl}phenyl)ethyl]alanine] | 0.0209 µM |  | 3.18e-06 M |  | 4.34e-09 M
10 | Cc1ccccc1-c1ccc(-c2nc(-c3ccc(CNC(C)(C)C(=O)O)cc3)no2)cc1C(F)(F)F [Example 57] | 0.0199 µM |  | > 2e-05 M |  | 5.69e-09 M
11 | Cc1cc(-c2nc(-c3ccc([C@@H](C)N[C@H](C)C(=O)O)cc3)no2)ccc1-c1ccccc1C(F)F [Example 2, N-[(1R)-1-(4-{5-[2′-(difluoromethyl)-2-methylbiphenyl-4-yl]-1,2,4-oxadiazol-3-yl}phenyl)ethyl]-D-alanine, hydrochloride salt] | 0.0103 µM |  | > 2e-05 M | 2.8e-10 M | 1.42e-09 M
12 | Cc1ccccc1-c1ccc(-c2nc(-c3ccc(CNC4(C(=O)O)CCC4)cc3)no2)cc1C(F)(F)F [Example 66] | 0.0276 µM |  | 9.31e-07 M |  | 3.86e-09 M
13 | CCN(Cc1cccc(-c2noc(-c3ccc(-c4ccccc4C)c(C(F)(F)F)c3)n2)c1)[C@H](CO)C(=O)O [Example 87, (R)-2-(Ethyl-{3-[5-(2′-methyl-2-trifluoromethyl-biphenyl-4-yl)-[1,2,4]oxadiazol-3-yl]-benzyl}-amino)-3-hydroxy-propionic acid] | 0.0249 µM |  | 4.68e-07 M |  | 2.29e-09 M
14 | Cc1ccccc1-c1ccc(-c2nc(-c3cc(F)cc(CN[C@@H](CC(C)C)C(=O)O)c3)no2)cc1C(F)(F)F [Example 12, N-(3-fluoro-5-{5-[2′-methyl-2-(trifluoromethyl)biphenyl-4-yl]-1,2,4-oxadiazol-3-yl}benzyl)leucine, hydrochloride salt] | 0.0289 µM |  | 6.43e-07 M |  | 2.58e-09 M
15 | Cc1ccccc1-c1ccc(-c2nc(-c3ccc(CN[C@H](C(=O)O)[C@@H](C)O)cc3)no2)cc1C(F)(F)F [Example 61] | 0.0233 µM |  | 1.15e-06 M |  | 4.27e-09 M
16 | Cc1ccccc1-c1ccc(-c2nc(-c3ccc(CCN[C@H](C(=O)O)C(C)C)cc3)no2)cc1C(F)(F)F [Example 91, (2S)-3-methyl-2-(4-(5-(2′-methyl-2-(trifluoromethyl)biphenyl-4-yl)-1,2,4-oxadiazol-3-yl)phenethylamino)butanoic acid] | 0.0345 µM |  | 7.36e-06 M |  | 8.12e-09 M
17 | Cc1cc(-c2nc(-c3ccc(C(C)NCC(=O)O)cc3)no2)ccc1-c1ccccc1C(F)(F)F (centres unmarked) [Example 23, N-[1-(4-{5-[2-methyl-2′-(trifluoromethyl)biphenyl-4-yl]-1,2,4-oxadiazol-3-yl}phenyl)ethyl]glycine, hydrochloride salt] | 0.0213 µM |  | 7.05e-06 M |  | 1.71e-09 M
18 | Cc1ccccc1-c1ccc(-c2nc(-c3cccc(CN(C)C(C(=O)O)C(C)C)c3)no2)cc1C(F)(F)F (centres unmarked) [Example 85] | 0.0479 µM |  | 7.93e-07 M |  | 5.26e-09 M
19 | Cc1ccccc1-c1ccc(-c2nc(-c3ccc(CN(C)[C@@H](CO)C(=O)O)c(F)c3)no2)cc1C(F)(F)F [Example 45, N-(2-fluoro-4-{5-[2′-methyl-2-(trifluoromethyl)biphenyl-4-yl]-1,2,4-oxadiazol-3-yl}benzyl)-N-methylserine, hydrochloride salt] | 0.0308 µM |  | 4.36e-07 M |  | 2.68e-09 M
20 | Cc1ccccc1-c1ccc(-c2nc(-c3ccc([C@H](C)N[C@H](C)C(=O)O)cc3)no2)cc1C(F)(F)F [Example 17, N-[(1S)-1-(4-{5-[2′-methyl-2-(trifluoromethyl)biphenyl-4-yl]-1,2,4-oxadiazol-3-yl}phenyl)ethyl]-D-alanine, hydrochloride salt] | 0.021 µM |  | 2.25e-06 M |  | 2.01e-09 M
21 | Cc1ccccc1-c1ccc(-c2nc(-c3ccc([C@H](C)NCC(=O)O)cc3)no2)cc1C(F)(F)F [Example 21, N-[(1S)-1-(4-{5-[2′-methyl-2-(trifluoromethyl)biphenyl-4-yl]-1,2,4-oxadiazol-3-yl}phenyl)ethyl]glycine, hydrochloride salt] | 0.0112 µM |  | 1.21e-06 M |  | 2.19e-09 M
22 | Cc1ccccc1-c1ccc(-c2nc(-c3cc(F)cc(CNC(C)(C)C(=O)O)c3)no2)cc1C(F)(F)F [Example 46, N-(3-fluoro-5-{5-[2′-methyl-2-(trifluoromethyl)biphenyl-4-yl]-1,2,4-oxadiazol-3-yl}benzyl)-2-methylalanine, hydrochloride salt] | 0.00934 µM |  | 9.55e-08 M |  | 7.94e-10 M
23 | COCc1cc(-c2nc(-c3ccc(CN(C)C(C)(C)C(=O)O)c(F)c3)no2)ccc1-c1ccccc1C [Example 43, N-(2-fluoro-4-{5-[2-(methoxymethyl)-2′-methylbiphenyl-4-yl]-1,2,4-oxadiazol-3-yl}benzyl)-N,2-dimethylalanine, hydrochloride salt] | 0.0241 µM | 3.15e-06 M | 8.4e-07 M | 6.3e-10 M | 2.32e-09 M
24 | COCc1cc(-c2nc(-c3ccc([C@H](C)NCC(=O)O)cc3)no2)ccc1-c1ccccc1C [Example 5, N-[(1S)-1-(4-{5-[2-(methoxymethyl)-2′-methylbiphenyl-4-yl]-1,2,4-oxadiazol-3-yl}phenyl)ethyl]glycine, hydrochloride salt] | 0.00433 µM |  | 1.23e-06 M |  | 1.27e-09 M
25 | Cc1ccccc1-c1ccc(-c2nc(-c3ccc(CNC(C)(CO)C(=O)O)cc3)no2)cc1C(F)(F)F (centres unmarked) [Example 65] | 0.00753 µM |  | 2.56e-06 M |  | 4.82e-09 M
26 | CCN(Cc1ccc(-c2noc(-c3ccc(-c4ccccc4C)c(C(F)(F)F)c3)n2)cc1)[C@H](C)C(=O)O [Example 90, (R)-2-(Ethyl-{4-[5-(2′-methyl-2-trifluoromethyl-biphenyl-4-yl) [1,2,4]oxadiazol-3-yl]-benzyl}-amino)-propionic acid] | 0.00792 µM |  | 9.48e-07 M |  | 2.48e-09 M
27 | Cc1ccccc1-c1ccc(-c2nc(-c3ccc(CN(C)C(C)(C)C(=O)O)cc3)no2)cc1C(F)(F)F [Example 56] | 0.0578 µM |  | 8.54e-06 M |  | 4.13e-09 M
28 | Cc1ccccc1-c1ccc(-c2nc(-c3ccc(CN[C@@H](CCO)C(=O)O)cc3)no2)cc1C(F)(F)F [Example 60] | 0.0242 µM |  | 1.03e-06 M |  | 3.46e-09 M
